Assay [1] deals with calvaria (skull bones) from 4 day old pups. The assay is described as follows: Calvarial Assay to Measure Inhibition of Bone Resorption (45Ca release). In kind it is cell-based, CD-1 mice. As for the experimental part:
In order to label cells of newborn mice in utero, pregnant CD-1 female mice (at timed day 15) were injected with ^45Ca (25 uCi/mouse). […] The bones were incubated at 37° C. in a 5% CO2 humidified incubator for a period of 24 hours following which they were transferred to wells containing 1 ml media with factors added (IL-1, PTH and or compounds.) The treated bones were incubated under the above conditions for a further 72 hours. […] The results were expressed as % ^45Ca release and can be further reported as T/C ratios. For some factors and compounds, modification of this procedure can be used. As most of the osteoclasts are formed in the calvaria following the preincubation period, the factors that affect osteoclast formation may have a greater effect during the preincubation period. Thus, for a number of the compounds, they were included in the preincubation media.

The subject of another assay is BMP-2. The assay is described as follows: BMP-2 Gene Expression Assay (MG-63 cells, real time PCR). As to conditions: 10 μg/ml. In kind it is cell-based, human. As for the experimental part:
It is also possible to test for BMP-2 gene expression and protein expression using assays similar to those described above for testing BMP-2 promoter activity. In particular, for gene expression, the human osteosarcoma cell line, MG-63 (ATCC# CRL-1427), is maintained in phenol-red containing MEM (as recommended by ATCC) at 37° C. and 5% CO2. Twenty-four hours prior to experimentation, 3×10^5 cells are seeded in 12-well plates in phenol-red free MEM. […] After an overnight incubation, RNA is extracted using conventional trizol/guanidine isothiocyanate based lysis. The isolated RNA was digested with RNase-free DNase I to remove any DNA contamination and then reverse transcribed to cDNA using random hexamer as well as oligo(dT) primers according to the manufacturer's instructions (Stratagene). Quantitative real time PCR is performed using FAM-labeled specific primers for BMP-2 and HEX-labeled specific primers for 18S rRNA (Invitrogen). All reactions are carried out in triplicate and the relative amount of mRNAs in treated versus untreated samples is calculated using the comparative CT method established by Applied Biosystems (2001). Gene expression changes of 2-fold or greater are considered significant.

The subject of another assay is Neonatal murine calvaria. The assay can be described thus: Calvarial Assay to Measure Bone Growth. Type of assay: cell-based, Swiss white mice. As for the experimental part: Neonatal murine calvaria from 4 day old Swiss white mice are excised, placed into BGJ media (Sigma), and cut in half along the midline suture. One milliliter of BGJ media supplemented with 0.1% bovine serum albumin (BSA) is added to each well of a 12 well tissue culture plate (Costar) to which the relevant factors or vehicles are added. Each half calvaria is placed on a stainless steel grid in the above media at the media/air interface. Usually 4 bones per experimental group are used. […] Factors to be tested are added on Day 0 (the day of dissection) and media is changed at 24 and 96 hours (if a 7 day assay is required). Calvaria are maintained in humidified air (5% Co2), at 37° C. Following the period of incubation, the calvaria are then removed and fixed overnight in 10% formalin. The calvaria are then decalcified in 14% EDTA overnight and are then embedded in paraffin wax. Sections are then cut, using a standard microtome, along the midline suture to reveal the coronal suture and the region posterior to this suture. Four micrometer sections were taken initially and at two sequential […] depths. Sections are placed on coated glass slides (Superfrost plus, Fisher Scientific, Pittsburgh, Pa.) and stained with hematoxylin and eosin. The total and new bone area (expressed as mm^2), suture thickness (mm), and number of cells lining the bone surface are determined in the section posterior to the […] suture. Histomorphometric analysis is performed using the Osteomeasure System (Osteometrics INC, Atlanta, Ga.).

The next assay deals with BMP-2 protein. The assay is described as follows: BMP-2 Protein Expression Assay (Hu09 cells, ELISA). Type of assay: cell-based. As for the experimental part: The cells are treated with different proteasome inhibitors for 24 hours. After incubation, the conditioned media is transferred into microcentrifuge tubes and centrifuged at 14,000 rpm for 2-3 minutes to remove cellular debris. The concentration of BMP-2 protein in the supernatant is then determined using the standard BMP-2 Elisa Kit (R&D ELISA KIT DBP200). Recombinant hBMP-2 (R&D) is used as a standard.

The test system of the next assay is BMP-2 promoter. The assay can be described thus: BMP2 Promoter assay (2T3-BMP2-Luciferase cells, luciferase). Type of assay: cell-based, murine.
For assay [2], the system named is RANK-L. The assay is described as follows: Inhibition of RANK-L production/release (IL-1b stimulated MG-63 cells, ELISA). In kind it is cell-based, human. As for the experimental part:
Weigh between 150 to 250 mg of each ingredient into a 15 ml conical bottomed tube. […] For solvent control, mix 1.5 ml DMSO, 0.9 ml ethanol, and 0.6 ml water. Vortex thoroughly. Sonicate for 10 minute in water bath, room temperature. Vortex thoroughly again. Dilute ingredient stocks in fresh phenol red-free media. Human osteosarcoma cell line, MG-63 (ATCC #CRL-1427), is maintained in phenol-red containing MEM (as recommended by ATCC) at 37° C. and 5% CO2. Twenty-four hours prior to experimentation, 3×10^5 cells are seeded in 12-well plates in phenol-red free MEM. […] Stock solution of TGF-beta is 30 μg/ml (from R&D Systems, cat #100-B-001). After pretreatment incubation period, […] IL-1b (Calbiochem (catalog #407615) and stock solution at 10 μg/ml, cat #407615) were added to the cell cultures for 18 hours at 37° C. Supernatant media from the treated and stimulated cells were removed and total RANK-L proteins were measured using RANK-L ELISA (in triplicate) as described by manufacturer (from APOTECH, catalog #APO-54N-016-k101). The resulting protein quantity was compared to that of media (null) treated stimulated cells to determine percent decrease in total RANK-L protein.

The test system of assay [3] is type IV collagenase protein (matrix metalloproteinase-9/MMP9). The assay is described as follows: MMP9 protein expression in IL-1B stimulated keratinocyte/fibroblast co-culture. In kind it is cell-based. The note with it: 10 ng/ml, stimulus alone; untreated 1.0. As for the experimental part:
Keratinocytes and fibroblasts were co-cultured in DMEM containing 0.5% BSA. Co-cultures were exposed to various concentrations of punicalagins (ranging from 0.1%-10%) were extracted from pomegranates. Specifically, the ability of the pomegranate extracts to inhibit type IV collagenase protein (matrix metalloproteinase-9/MMP9) expression at concentrations of 1.0 μg/ml, 10 μg/ml, and 100 μg/ml were tested. Following exposure to the pomegranate extracts, the co-culture cells were stimulated with 10 ng/ml of IL-1B for 18 hours. Following stimulation with IL-1B for 18 hours, and MMP9 concentration was determined in the media as shown below in Table 14.

In assay [4] the test system is RANK-L. The assay can be described thus: RANK-L gene expression (IL-1b stimulated MG63 cells, qPCR). Type of assay: cell-based, human. The note with it: 3 μg/ml, stimulus alone. As for the experimental part:
Punicalagin test samples are extracted from pomegranates, including from pomegranate peels, skins, fleshy fruit, and seeds using 100% DMSO at 100 mg/ml. Particulate matter in the extraction is not removed. The punicalagin test samples are diluted in MEM without phenol red (estrogenic) and 0.1% FBS to lower background signaling to ten times the final concentrations. Final DMSO concentrations are kept below 0.2% and are kept constant during treatments. DMSO solvent control is used in the untreated group.
MG63 cells (ATCC #CRL-1472), a human-derived osteosarcoma cell line, are plated at 200,000 cells per well in a 12 well plate with phenol red free MEM at 10% FBS. The next day the media is changed to phenol red free MEM at 0.1% FBS. […]
[…] The treated cells the stimulus, IL-1b, are then allowed to incubate for 16 hours at 37° C.
After 16 hours the cells are lysed and the RNA is extracted from the cells with the RNasy purification kit (Qiagen). RNA is reverse transcribed to cDNA and quantified by qPCR using 2-step qRT-PCR reagents (Invitrogen), and 4 μL of purified RNA. Annealing temperature is 57° C. in the Stratagene Mx4000 with 1 μL of RANK-L gene specific primers in a 50 μL reaction (10 μM initial concentration; HLUX3013920, Invitrogen Inc.).
RANK-L and GAPDH gene expression Ct data are obtained. RNA is quantified with adjustments for GAPDH expression. […]

From patent publication US9446087B2, “Anti-resorptive and bone building dietary supplements and methods of use” (priority 2006, dated 2016) come the findings set out here.

Several values for one entry are separate records, joined by “and”; a condition that tells them apart may be missing. Equal entries are not always repeated. Marks after values point to notes of the source that are not given here.

Regarding `CC(C)Oc1ccc2c(=O)c(-c3ccccc3)coc2c1` [I, 7-isopropoxy isoflavone], the “Inhibition of Bone Resorption/Release of Ca^2+, % Release” value in assay [1] (IL-1 + 1 μg/ml) was 38.00 ± 1.41 % Release; in assay [1] (IL-1 + 10 μg/ml), 32.50 ± 3.30 % Release; in assay [1] (IL-1 + 100 μ/ml), 19.25 ± 1.03^a % Release. Also, the “Inhibition of Bone Resorption/Release of Calcium By Combinations of Extracts, % Release” value in assay [1] (IL-1 + 1 μg/ml) is on record as 29.75 ± 4.54 % Release; in assay [1] (IL-1 + 10 μg/ml), 30.25 ± 4.03 % Release; in assay [1] (IL-1 ± 100 μg/ml) it was 17.50 ± 1.66^a % Release. In addition, the “Fold Change in Gene Expression” value in the assay on BMP-2 was “No effect”. In addition, the “Calvarial Assay Results- Bone formation” value is reported as 2.44 ± 0.66 mm^2 × 10^−3 in the assay on Neonatal murine calvaria (1 μg/ml), 6.05 ± 1.12 mm^2 × 10^−3 in the assay with Neonatal murine calvaria (10 μg/ml) and 7.04 ± 0.69^a mm^2 × 10^−3 in the assay with Neonatal murine calvaria (100 μg/ml). Further, the “BMP-2 Protein Expression” value in the assay with BMP-2 protein (1 μg/ml) was determined as 2.4 FOLD; with BMP-2 protein (10 μg/ml) it was 1.8 FOLD; in the assay on BMP-2 protein (100 μg/ml), 1.8 FOLD. Further, the “BMP2 Promoter assay (ratio to control)” value in the assay with BMP-2 promoter (0.05 μg/ml) came out at 1.00 FOLD; in the assay with BMP-2 promoter (0.1 μg/ml) it was 0.90 FOLD; in the assay with BMP-2 promoter (0.2 μg/ml) it was 1.00 FOLD; in the assay with BMP-2 promoter (0.4 μg/ml) it was 0.90 FOLD; with BMP-2 promoter (0.8 μg/ml), 1.20 FOLD; in the assay with BMP-2 promoter (1.6 μg/ml), 1.50 FOLD. Also, the “BMP2 Promoter assay (ratio to control)” value is recorded as 2.10 FOLD with BMP-2 promoter (3.2 μg/ml); 2.90 FOLD in the assay with BMP-2 promoter (6.3 μg/ml); 3.60 FOLD in the assay on BMP-2 promoter (12.5 μg/ml); 3.90 FOLD in the assay on BMP-2 promoter (25 μg/ml); 4.40 FOLD in the assay with BMP-2 promoter (50 μg/ml); 4.50 FOLD with BMP-2 promoter (100 μg/ml). The “RANK-L inhibition (%)” value in the assay with RANK-L [2] (10 μg/ml, listed as Ipriflavone (Ostivone)) was 0 ± 4.3% and 2.8 ± 3.9% and 0 ± 2.5%. The “% Change in Production/Release Levels (compared to untreated control)” value with RANK-L [2] (tested at 1 μg/ml) is reported as “No effect”.
Regarding IL1B: IL-1b stimulus (Calbiochem), the “MMP9 protein expression (fold of untreated)” value in assay [3] was 1.65. In addition, the “RANK-L Expression (fold increase)” value with RANK-L [4] is given as 3.3 ± 0 fold increase.
